Laboratory results as given in patent publication US11470846B2, “Herbicidal pyridino-/pyrimidino-thiazoles” (SYNGENTA PARTICIPATIONS AG, priority 2014, dated 2022).

What was measured:
Assay type in all cases: in vivo
[1] = test system: Alopecurus myosuroides (ALOMY); test: Post-emergence herbicidal activity; settings: post-emergence application, 1000 g/Ha, evaluated after 13 days, scale 0-5
How it was run: (§1)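 Post-emergence spray at 8 days after sowing; formulation acetone/water 50:50 + 0.5% Tween 20. Glasshouse 24/16 °C, 14 h light, 65% RH, watered twice daily. Visual score at 13 d, 0 (no damage) to 5 (total damage).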

Oryza sativa (ORYSA) [2] = test: Post-emergence herbicidal activity; settings: post-emergence application, 1000 g/Ha, evaluated after 13 days, scale 0-5
How it was run: as §1

Lolium perenne (LOLPE) [3] = test: Post-emergence herbicidal activity; settings: post-emergence application, 1000 g/Ha, evaluated after 13 days, scale 0-5; Table 7
How it was run: as §1

Avena fatua (AVEFA) [4] = test: Post-emergence herbicidal activity; settings: post-emergence application, 1000 g/Ha, evaluated after 13 days, scale 0-5
How it was run: as §1

[5] = test system: Echinochloa crus-galli (ECHCG); test: Post-emergence herbicidal activity; settings: post-emergence application, 1000 g/Ha, evaluated after 13 days, scale 0-5; Table 7
How it was run: as §1

[6] = test system: Triticum aestivium (TRZAW); test: Post-emergence herbicidal activity; settings: post-emergence application, 1000 g/Ha, evaluated after 13 days, scale 0-5
How it was run: as §1

[7] = test system: Alopecurus myosuroides (ALOMY); test: Pre-emergence herbicidal activity; settings: pre-emergence application, 1000 g/Ha, evaluated after 13 days, scale 0-5
How it was run: (§2)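 Seeds sown in standard soil, sprayed one day after sowing with active ingredient formulated in acetone/water (50:50) with 0.5% Tween 20. Glasshouse at 24/16 °C day/night, 14 h light, 65% humidity, watered twice daily; damage scored after 13 days on a 0–5 scale (5 = total damage).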

Oryza sativa (ORYSA) [8] = test: Pre-emergence herbicidal activity; settings: pre-emergence application, 1000 g/Ha, evaluated after 13 days, scale 0-5
How it was run: as §2

Lolium perenne (LOLPE) [9] = test: Pre-emergence herbicidal activity; settings: pre-emergence application, 1000 g/Ha, evaluated after 13 days, scale 0-5; Table 5
How it was run: as §2

Avena fatua (AVEFA) [10] = test: Pre-emergence herbicidal activity; settings: pre-emergence application, 1000 g/Ha, evaluated after 13 days, scale 0-5
How it was run: as §2

[11] = test system: Echinochloa crus-galli (ECHCG); test: Pre-emergence herbicidal activity; settings: pre-emergence application, 1000 g/Ha, evaluated after 13 days, scale 0-5; Table 5
How it was run: as §2

[12] = test system: Triticum aestivium (TRZAW); test: Pre-emergence herbicidal activity; settings: pre-emergence application, 1000 g/Ha, evaluated after 13 days, scale 0-5
How it was run: as §2

Row | Structure (SMILES) | Control of weed species, ALOMY (damage score) [1] | Control of weed species, ORYSA (damage score) (Oryza sativa (ORYSA) [2]) | Control of weed species, LOLPE (damage score) (Lolium perenne (LOLPE) [3]) | Control of weed species, AVEFA (damage score) (Avena fatua (AVEFA) [4]) | Control of weed species, ECHCG (damage score) [5] | Control of weed species, TRZAW (damage score) [6] | Control of weed species, ALOMY (damage score) [7] | Control of weed species, ORYSA (damage score) (Oryza sativa (ORYSA) [8]) | Control of weed species, LOLPE (damage score) (Lolium perenne (LOLPE) [9]) | Control of weed species, AVEFA (damage score) (Avena fatua (AVEFA) [10]) | Control of weed species, ECHCG (damage score) [11] | Control of weed species, TRZAW (damage score) [12]
1 | Cc1nc(-c2cccnc2)sc1N(C)C(=S)SC(C)(C)C [Compound A23, tert-butyl N-methyl-N-[4-methyl-2-(3-pyridyl)thiazol-5-yl]carbamodithioate] | 0 | 0 | 0 | 1 | 1 | 0 | 0 | 0 | 0 | 0 | 0 | 0
2 | CN(C(=O)OC(C)(C)C)c1sc(-c2cncc(F)c2)nc1C(F)(F)F [Compound A24] | 0 | 2 | 4 | 4 | 5 | 1 | 2 | 0 | 3 | 4 | 4 | 1
3 | CN(C(=O)OC(C)(C)C)c1sc(-c2cccnc2)nc1C(F)(F)F [Compound A25] | 1 | 1 | 4 | 4 | 5 | 2 | 1 | 1 | 3 | 4 | 4 | 0
4 | CN(C(=O)OC(C)(C)C)c1sc(-c2cncnc2)nc1C(F)(F)F [Compound A26] | 0 | 2 | 4 | 5 | 5 | 1 | 2 | 1 | 3 | 4 | 4 | 0
5 | CN(C(=O)OC(C)(C)C)c1sc(-c2cncc(Cl)c2)nc1C(F)(F)F [Compound A27] | 1 | 1 | 3 | 4 | 5 | 2 | 0 | 0 | 2 | 2 | 2 | 0
6 | COc1cncc(-c2nc(C(F)(F)F)c(N(C)C(=O)OC(C)(C)C)s2)c1 [Compound A28, tert-butyl N-[2-(5-methoxy-3-pyridyl)-4-(trifluoromethyl)thiazol-5-yl]-N-methyl-carbamate] | 1 | 1 | 3 | 2 | 4 | 1 | 0 | 0 | 2 | 1 | 3 | 0
7 | CN(C(=O)OC(C)(C)C)c1sc(-c2cccnc2)nc1Cl [Compound A29] | 1 | 1 | 4 | 4 | 5 | 1 | 1 | 2 | 2 | 2 | 3 | 3
8 | CN(C(=O)OC(C)(C)C)c1sc(-c2cccnc2)nc1Br [Compound A30, tert-butyl N-[4-bromo-2-(3-pyridyl)thiazol-5-yl]-N-methyl-carbamate] | 1 | 1 | 4 | 4 | 5 | 2 | 1 | 1 | 2 | 3 | 4 | 0
9 | CN(C(=O)OC(C)(C)C)c1sc(-c2cccnc2)nc1I [Compound A31, tert-butyl N-[4-iodo-2-(3-pyridyl)thiazol-5-yl]-N-methyl-carbamate] | 1 | 1 | 3 | 5 | 4 | 1 | 1 | 1 | 2 | 1 | 3 | 1
10 | CN(C(=O)OC(C)(C)C)c1sc(-c2cccnc2)nc1F [Compound A32, tert-butyl N-[4-fluoro-2-(3-pyridyl)thiazol-5-yl]-N-methyl-carbamate] | 1 | 1 | 2 | 3 | 3 | 0 | 0 | 2 | 1 | 1 | 2 | 0
11 | Cc1nc(-c2cncc(F)c2)sc1N1CCOC1=O [Compound A38, 3-[2-(5-fluoro-3-pyridyl)-4-methyl-thiazol-5-yl]oxazolidin-2-one] | 1 | 0 | 3 | 4 | 5 | 1 | 1 | 3 | 2 | 1 | 5 | 0
12 | Cc1nc(-c2cccnc2)sc1N(C)C(=O)NOC(C)(C)C [Compound A45, 3-tert-butoxy-1-methyl-1-(4-methyl-2-(3-pyridyl)thiazol-5-yl)urea] | 1 | 2 | 4 | 5 | 4 | 2 | 2 | 2 | 2 | 3 | 3 | 1
13 | CN(C(=O)OC(C)(C)C)c1sc(-c2cncc(F)c2)nc1Br [Compound A51] | 0 | 0 | 2 | 4 | 4 | 0 | 0 | 0 | 3 | 2 | 1 | 0
